Counter-ions that a name gives are not always drawn. The source made the active and inactive calls. Rule as the data show it, for most assays here: actives have a measured EC50 and inactives only a lower limit.
Tests used:
Streptokinase A = target: T1, Streptokinase A (Streptococcus pyogenes serotype M1, UniProt P10520); assay: viability-normalized secreted streptokinase activity reduction – plasminogen activation absorbance, OD405, dose response (AID 1914); format: functional, Streptococcus pyogenes M1 GAS;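 also: secreted streptokinase activity via plasminogen activation per viability signal from cell pellet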
T1 sequence (P10520 whole entry): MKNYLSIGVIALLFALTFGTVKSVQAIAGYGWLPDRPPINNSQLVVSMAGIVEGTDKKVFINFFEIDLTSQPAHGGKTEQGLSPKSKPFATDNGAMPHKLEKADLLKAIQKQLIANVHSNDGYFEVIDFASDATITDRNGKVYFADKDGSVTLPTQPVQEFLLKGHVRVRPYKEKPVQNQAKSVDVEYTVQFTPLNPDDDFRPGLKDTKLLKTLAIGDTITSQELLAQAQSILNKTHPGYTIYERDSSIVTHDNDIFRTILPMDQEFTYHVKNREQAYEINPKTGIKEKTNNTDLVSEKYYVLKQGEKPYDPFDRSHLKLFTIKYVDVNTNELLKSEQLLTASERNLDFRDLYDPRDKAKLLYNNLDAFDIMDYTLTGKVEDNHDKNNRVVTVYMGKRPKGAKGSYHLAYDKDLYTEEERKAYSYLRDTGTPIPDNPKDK

[1] = test system: Streptococcus sp. 'group A'; assay: Streptococcus pyogenes SK(-)GAS viability under kanamycin – luminescence, BacTiterGlo, confirmation, counter-screen for streptokinase expression inhibitor project, dose response (AID 1900); format: functional, organism-based
Streptococcus = assay: GAS UMAA2166 growth inhibition – luminescence, BacTiterGlo, counter-screen for streptokinase expression inhibitor project, dose response (AID 1915); format: functional, organism-based;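 also: potency for reduction of bacterial viability or growth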
[2] = Luminescence Cell-Based Dose Retest to Confirm Inhibitors of Cancer Stem Cells. [Related pubchem assays (depositor defined):AID2717, AID2721]; format: functional; settings: Homo sapiens
[3] = reduction of Shn3 3'UTR-driven luciferase in osteoblasts – cell-based, Clone20 osteoblasts, firefly luciferase, cherry-picked, dose response (AID 624132); format: functional;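 also: firefly luciferase luminescence from reporter carrying the Shn3 3'UTR in osteoblasts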
[4] = loss of viability in HepG2 cells – cell-based, CellTiter-Glo, cherry-picked, cytotoxicity control for Shn3 inhibitor project, dose response (AID 624134); format: functional
[5] = non-specific 3'UTR reporter inhibition in Clone20-Shn3RL – cell-based, Renilla luciferase, cherry-picked, counter-screen for Shn3 inhibitor project, dose response (AID 624133); format: functional
[6] = target: T2, Corticotropin-releasing factor receptor 2/Corticotropin-releasing factor-binding protein (Homo sapiens, UniProt P24387+Q13324); assay: Dose Response confirmation of uHTS hits for small molecule antagonists of the CRF-binding protein and CRF-R2 receptor complex.; format: functional; settings: read-out: IC50_Mean
T2 sequence (Q13324 whole entry): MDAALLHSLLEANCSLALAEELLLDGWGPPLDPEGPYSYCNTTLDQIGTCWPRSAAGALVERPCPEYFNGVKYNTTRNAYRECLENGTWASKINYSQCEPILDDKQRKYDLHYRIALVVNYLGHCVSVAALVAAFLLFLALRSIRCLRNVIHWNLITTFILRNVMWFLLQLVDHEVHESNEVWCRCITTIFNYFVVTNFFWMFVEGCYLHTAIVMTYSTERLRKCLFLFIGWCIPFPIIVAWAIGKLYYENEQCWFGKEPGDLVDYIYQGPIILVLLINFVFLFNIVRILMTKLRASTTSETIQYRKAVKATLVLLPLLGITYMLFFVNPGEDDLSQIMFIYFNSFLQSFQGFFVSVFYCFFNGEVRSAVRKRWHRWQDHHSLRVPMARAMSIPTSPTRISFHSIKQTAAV
T2 sequence (P24387 whole entry): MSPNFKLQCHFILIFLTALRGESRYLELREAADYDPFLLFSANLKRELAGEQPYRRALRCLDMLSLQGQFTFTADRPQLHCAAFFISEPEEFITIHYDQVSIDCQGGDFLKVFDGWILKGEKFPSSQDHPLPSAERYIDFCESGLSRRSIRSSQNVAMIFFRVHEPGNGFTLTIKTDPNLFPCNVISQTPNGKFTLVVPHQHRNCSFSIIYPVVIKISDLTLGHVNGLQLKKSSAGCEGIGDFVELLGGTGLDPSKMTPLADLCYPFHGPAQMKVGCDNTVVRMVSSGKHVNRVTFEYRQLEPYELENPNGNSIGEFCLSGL

[7] = target: T2, Corticotropin-releasing factor receptor 2/Corticotropin-releasing factor-binding protein; assay: activators of CRF receptor 2 with binding protein – uHTS hits, confirmation (AID 602473); format: functional; settings: read-out: EC50_Mean
INS1 = assay: INS-1E survival protection against cytokine death – cell-based, luminescence, retest, dose response (AID 449756); format: functional; settings: Rattus norvegicus;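 also: cell death triggered by IL-1 beta plus TNF-alpha plus IFN-gamma mixture; protective hits raise ATP signal compared with cytokine alone wells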
[8] = target: T3, Heat shock factor protein 1 (Mus musculus, UniProt P38532); assay: decrease of HSF1-responsive luciferase luminescence – cell-based, NIH3T3, dose retest, confirmation (AID 2382); format: functional;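 also: NIH3T3 fibroblasts with HSF1-driven luciferase reporter stressed by proteasome inhibitor MG132; luminescence from HSF1-driven luciferase expression after 8 hours of MG132 stress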
T3 sequence (P38532 whole entry): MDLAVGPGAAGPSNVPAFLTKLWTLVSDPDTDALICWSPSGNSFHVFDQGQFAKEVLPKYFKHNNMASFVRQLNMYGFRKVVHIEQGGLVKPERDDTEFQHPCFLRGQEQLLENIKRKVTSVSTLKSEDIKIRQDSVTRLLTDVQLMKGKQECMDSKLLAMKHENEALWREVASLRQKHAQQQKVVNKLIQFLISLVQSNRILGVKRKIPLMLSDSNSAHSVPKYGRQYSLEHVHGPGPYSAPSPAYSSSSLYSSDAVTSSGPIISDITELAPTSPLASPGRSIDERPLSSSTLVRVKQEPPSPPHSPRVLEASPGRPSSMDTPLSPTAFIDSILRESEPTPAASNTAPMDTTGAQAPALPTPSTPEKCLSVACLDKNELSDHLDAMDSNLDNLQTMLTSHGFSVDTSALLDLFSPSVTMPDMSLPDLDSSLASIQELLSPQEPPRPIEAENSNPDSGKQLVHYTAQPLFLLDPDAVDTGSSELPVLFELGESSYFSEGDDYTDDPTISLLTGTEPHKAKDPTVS

[9] = target: T3, Heat shock factor protein 1; assay: enhancement of HSF1-driven luciferase signal – cell-based, NIH3T3, luminescence, dose retest, confirmation (AID 435004); format: functional;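 also: stress induced by proteasome inhibitor MG132 added 30 min after compound; luciferase reporter driven by HSF1 response element in NIH3T3 cells; actives raise luminescence as potentiators of the MG132 stress response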
[10] = luciferase reporter signal suppression in cells – H4 neuroglioma cells, luminescence, dose response (AID 1990); format: functional, cell-based
[11] = alpha-synuclein stem-loop luciferase translation blockers – H4 neuroglioma cells, luminescence, confirmation (AID 1988); format: functional, cell-based
[12] = Luminescence Cell-Based Dose Response HTS to Identify Inhibitors of 5'UTR Stem-Loop Driven Prion Protein mRNA Translation in H4 Neuroglioblastoma Cells. [Related pubchem assays: 1827 (Project Summary), 1813 (Primary HTS)]; format: functional
[13] = NIH-3T3 fibroblast cytotoxicity, dose response, cytotoxicity control, cell-based, fluorescence, Alamar Blue, secondary assay (AID 2327); format: functional;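 also: NIH-3T3 mouse fibroblasts cultured with fluconazole at 8 µg/mL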
[14] = fluconazole-exposed Candida albicans growth modulators – fluorescence, retest, confirmation (AID 2467); format: functional, cell-based
[15] = Trypanosoma cruzi growth suppression in host cells – NIH3T3 host cells, beta-gal luminescence, confirmation (AID 2044); format: functional, cell-based;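 also: intracellular parasites grown in NIH/3T3 mouse fibroblasts as host cells; luminescent beta-galactosidase reporter signal from transgenic T. cruzi replicating inside host cells; inhibitors lower the luminescence signal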
[16] = viability of uninfected HEp-2 cells – cell-based, HTS, cytotoxicity control for RSV inhibitor project, dose response (AID 2410); format: functional; settings: human respiratory syncytial virus
[17] = NIH3T3 cell viability loss – ATP luminescence, mouse fibroblasts, counter-screen, dose response (AID 2010); format: functional, cell-based;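 also: cells exposed to compound for about 90 hours before reading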

COc1ccc(NP(=O)(Oc2ccc(Cl)cc2)Oc2ccc(Cl)cc2)cc1OC
EC50 (Streptokinase A): 21.1 µM (active) | EC50 [1]: 12.4 µM (active) | EC50 (Streptococcus): 16.3 µM (active)

CC[C@H](C)[C@H]1O[C@]2(CC[C@@H]1C)C[C@@H]1C[C@@H](CC=C(C)[C@@H](O[C@H]3C[C@H](OC)[C@@H](O[C@H]4C[C@H](OC)[C@@H](O)[C@H](C)O4)[C@H](C)O3)[C@@H](C)C=CC=C3CO[C@@H]4[C@H](O)C(C)=C[C@@H](C(=O)O1)[C@]34O)O2
AC50 [2]: 1.22 µM (active) | AC50 [3]: 6.32 µM (active) | AC50 [4]: 31.2 µM (active) | AC50 [5]: 20.3 µM (active)

CCc1nc2c3cnn(-c4cc(Cl)ccc4C)c3ncn2n1
EC50 (Streptokinase A): > 150 µM (not active) | EC50 [1]: > 150 µM (not active) | EC50 (Streptococcus): > 150 µM (not active)

Oc1ccnc2c(Cl)cccc12
IC50 [6]: > 47.1 µM (inactive) | EC50 [7]: > 53 µM (inactive)

O=[N+]([O-])c1cc2c(c(CSc3nnc(Nc4ccccc4)s3)c1)OCOC2
AC50 [3]: 3.62 µM (active) | AC50 [4]: 55.6 µM (active) | AC50 [5]: 9.43 µM (active)

COCC1CCCCN1C(=O)c1cc(COc2ccc3ncccc3c2)on1 (stereo not drawn)
AC50 (INS1): 3.15 µM (active) | AC50 [3]: 0.33 µM (active) | EC50 [8]: > 195 µM (not active) | AC50 [4]: 28.9 µM (active) | AC50 [5]: 3.12 µM (active)

CCO/C(O)=C1\C(C)=Nc2nc3ccccc3n2C1c1ccncc1 (stereo not drawn)
EC50 [9]: > 260 µM (inactive) | EC50 [10]: > 120 µM (not active) | EC50 [11]: > 120 µM (not active) | EC50 [12]: > 120 µM (not active)

CCOC(=O)c1cc(C#N)c(N2CCN(c3ccc(OC)cc3)CC2)nc1O
EC50 [13]: > 150 µM (inconclusive) | EC50 [14]: 0.046 µM (active)

O=C(NCCNC(=O)C(c1ccccc1)c1ccccc1)c1ccco1
EC50 [13]: > 150 µM (inactive) | EC50 [14]: > 38 µM (not active)

COCCCNC(=S)NNC(=S)Nc1cccc(Cl)c1
EC50 (Streptokinase A): > 150 µM (not active)

Cc1ccc2nc(N3C(=O)C(O)=C(C(=O)c4ccco4)C3c3cccc(O)c3)sc2c1 (stereo not drawn)
IC50 [6]: < 0.368 µM (active) | EC50 [7]: > 53 µM (inactive)

Cc1ccc(CN2CC(C(=O)Nc3nnc(SCc4c(Cl)cccc4Cl)s3)CC2=O)cc1 (stereo not drawn)
EC50 (Streptokinase A): 5.57 µM (active) | EC50 [1]: 4.07 µM (active) | EC50 (Streptococcus): 37.2 µM (active)

Cc1csc(NC(=O)c2c(O)c3c(n(CC(C)C)c2=O)CCCC3)n1
EC50 (Streptokinase A): > 150 µM (not active) | EC50 [1]: 11 µM (active) | EC50 (Streptococcus): 17.3 µM (active)

C=CCN1C(=O)NC(=O)/C(=C(/CC)Nc2ccccc2NC(=O)CC)C1=O
IC50 [6]: > 47.1 µM (inactive) | EC50 [7]: > 53 µM (inactive)

CN(C/C=C/C#CC(C)(C)C)Cc1cccc2ccccc12 [TERBINAFINE HYDROCHLORIDE]
EC50 [13]: > 160 µM (inactive) | EC50 [14]: 2.94 µM (inconclusive)

O=C(NCc1cccnc1)c1ccc(-c2ccc(F)c(F)c2)c2ccoc12
AC50 [3]: 3.48 µM (active) | AC50 [4]: 6.48 µM (active) | AC50 [5]: 4.19 µM (active)

COc1cc(OC)cc(C(=O)Nc2nnc(NC(=S)Nc3ccccc3)s2)c1
EC50 (Streptokinase A): > 150 µM (not active)

CCC1(c2ccc(F)cc2)NC(=O)N(CC(=O)N2CCc3ccccc32)C1=O (stereo not drawn)
EC50 [7]: 11 µM (active)

COc1ccc2nc(N3C(=O)CNC3=S)sc2c1
EC50 (Streptokinase A): > 150 µM (not active) | EC50 [1]: 3.47 µM (active) | EC50 (Streptococcus): > 150 µM (not active)

Cc1ccc(S(=O)(=O)N2CCN(c3ncnc4sccc34)CC2)cc1
AC50 (INS1): 5.64 µM (active) | AC50 [3]: 2.72 µM (active) | AC50 [4]: 6.76 µM (active) | AC50 [5]: 5.22 µM (active)

CCCCCCNC(=O)C(C#N)c1nc2ccccc2nc1N1CCCC1 (stereo not drawn)
EC50 [7]: 5.12 µM (active)

Cn1cc([N+](=O)[O-])c(C(=O)Nc2ccc(-c3nc4ccccc4[nH]3)cc2)n1
EC50 [9]: 32 µM (active)

CC12CC(O)C3c4ccc(O)cc4CCC3C1CCC2=O (stereo not drawn)
AC50 [3]: > 70 µM (inactive) | AC50 [5]: 26.8 µM (active)

O=C(N/N=C/c1cc(Br)c(Br)o1)c1ccc2c(c1)OCCO2
EC50 [13]: > 150 µM (inconclusive) | EC50 [14]: 3.24 µM (active)

N=c1c(-c2nc3ccccc3[nH]2)cc(C(=O)c2cccs2)nn1-c1ccccc1
EC50 [15]: 0.39 µM (active) | EC50 [1]: 1.51 µM (active) | CC50 [16]: 15.3 µM (active) | EC50 [17]: > 60 µM (not active) | EC50 (Streptococcus): 5.63 µM (active)

CCOC(=O)c1ccc(NC(=O)c2sc3nc4n(c(=O)c3c2C)CCC4)cc1
EC50 (Streptokinase A): > 150 µM (not active) | EC50 [1]: 1.48 µM (active) | EC50 (Streptococcus): 20.2 µM (active)

COc1cc(OC)cc(C(=O)Nc2nnc(N=C(S)Nc3ccccc3)s2)c1
EC50 [1]: 9.71 µM (active) | CC50 [16]: 8.31 µM (active) | EC50 (Streptococcus): 30.7 µM (active)

Cc1cccc(C)c1OC1(c2ccccc2)OC(=O)c2ccccc21 (stereo not drawn)
EC50 (Streptokinase A): 12.2 µM (active) | EC50 [1]: 18.4 µM (active) | EC50 (Streptococcus): > 150 µM (not active)

COC(=O)c1c(-c2ccc(C)cc2)csc1NC(=O)c1c(-c2ccccc2)noc1C
CC50 [16]: 26.5 µM (active)

CCCCCCCCCc1nc2sc3c(c2c(=O)n1NC(=O)c1ccc([N+](=O)[O-])cc1)CC(C)(C)OC3
EC50 (Streptokinase A): 2.17 µM (active) | EC50 [1]: 3.71 µM (active) | EC50 (Streptococcus): 39.8 µM (active)

CCOc1ncccc1C(=O)NCCc1c[nH]c2ccccc12
EC50 [9]: > 260 µM (inactive)

NC(=O)CCN1CCN(CCOC2Cc3cc(Cl)ccc3Sc3ccccc32)CC1 (stereo not drawn)
EC50 [9]: > 260 µM (inactive)

Cc1cc(F)ccc1NCc1cc2c(cc1[N+](=O)[O-])OCO2
EC50 [9]: > 260 µM (inactive)

COc1ccc(-c2cn3cc(C)ccc3n2)cc1OC
EC50 [9]: > 260 µM (inactive)

Cc1ccc2[nH]c(SCC(=O)NCc3ccc(F)cc3)nc2c1
EC50 [9]: > 260 µM (inactive)

CCCCCn1c(SCc2ccncc2)nc2cc(C(=O)NCc3ccco3)ccc2c1=O
CC50 [16]: 48.3 µM (active)
